Measured values as given in patent publication US20230026402A1, “MICROBIOTA BASED THERAPIES TO PROMOTE MENTAL HEALTH” (Cornell University, priority 2019, published 2023).
Entries after “also recorded” stand apart in the source; their conditions may differ. Structures can show the parent of a compound that is named as a salt.

Columns and labels:
[1] = system: BV-2 cells; test: BV-2 phagocytosis assay with apoptotic N2A bait cells (CypHer5); type: cell-based, mouse; conditions: metabolite cocktail plus CH223191 5 uM
From the text: FIG. 32. Outline of phagocytosis assay in BV-2 cells. Briefly, apoptotic N2A cells (“bait”) are generated by UV irradiation and loaded with the pH sensitive dye CypHer5 before co-culture with Hoechst stained BV-2 cells. After washing, BV-2 cells are the collected and analyzed by flow cytometry.
FIG. 33. […] Each bar is the average of 4 separate wells +/−SEM. P-vales calculated using two-way ANOVA.
Finally, we asked whether treatment with metabolites altered the ability of BV-2 microglia to engulf apoptotic N2A cells as outlined above. In this assay the phagocytes (in this case BV-2 cells) are treated with metabolites or vehicle for 120 h and then loaded with Hoechest dye. N2A cells are killed with UV radiation (confirmed by staining with viability dyes and Annexin V to distinguish apoptotic from necrotic cells) and then loaded with the pH sensitive dye CypHer5 which only fluoresces in the phagolysosome. They are then fed to BV-2 cells for a predetermined length of time (5:1 ratio of N2A to BV-2, 1 h of eating) before being harvested and analyzed by flow cytometry (FIG. 32).

[2] = system: BV-2 cells; test: AhR blockade of metabolite-induced changes in BV-2 microglia; type: cell-based, mouse; conditions: metabolite cocktail 32 ug/mL each plus CH223191 5 uM, 5 days
Method: FIG. 28. […] Results of AhR blockade on metabolite-induced proliferation and cell surface profile changes in BV-2 microglia. BV-2 cells were treated with vehicle (DMSO), metabolite cocktail (32 ug/mL of each metabolite), or metabolite cocktail with the AhR inhibitor CH223191 (5 uM final concentration in DMSO) for 5 days before performing the same analysis as in slide 5 (CSF1R and F4/80 or Ki67 staining). While the increase in F4/80 and CSF1R intensity is dependent on intact AhR signaling (top row), AhR signaling is dispensable for metabolite-induced proliferation (bottom row). Each bar is the average of 4 separate wells+/−SEM. P-vales calculated using two-way ANOVA.

[3] = system: BV-2 immortalized mouse microglia; test: Metabolite time course in BV-2 microglia (Ki67 proliferation, CSF1R and F4/80 surface staining); type: cell-based; conditions: BV-2 cells, 32 ug/mL of each compound; for proliferation (percent Ki67+ cells): 5 days (120 h); for CSF1R cell surface staining intensity (MFI) / F4/80 cell surface staining intensity (MFI): 5 days
Method: FIG. 26. Representation of the outline of metabolite time course experiment utilizing BV-2 immortalized mouse microglia. BV-2 cells are plated with either media alone, or with a cocktail of the 4 metabolites identified in slide 1 at a final concentration of 32 ug/mL of each compound at the indicated time points. Cells are then harvested and stained using conventional methods for either cell surface markers or the proliferation marker Ki67.
FIG. 27. Metabolite treatment increases proliferative capacity and alters the cell surface profile of BV-2 cells. Results of metabolite time course in BV-2 cells. […] Each bar is the average of 4 separate wells+/−SEM. P-vales calculated using two-way ANOVA.
FIG. 29. […] In order to test the ability of the AhR ligand indoxyl sulfate in BV-2 microglia, cells were treated for 5 days with either a cocktail of metabolites or with indoxyl sulfate (32 ug/mL of all compounds tested). […] Each bar is the average of 4 separate wells+/−SEM. P-vales calculated using two-way ANOVA.
Purified cultures, or immortalized equivalents were used. The cells were treated with a cocktail of the 4 metabolites to evaluate microglial response to metabolite treatment (FIG. 26). […] There is a relatively linear effect with increasing proportions of proliferation or F4/80, CSF1R high cells with increasing exposure to the metabolite cocktail.
We next asked if individual metabolites were responsible for the biological activity of the metabolite cocktail or whether multiple metabolites were required.

| Compound | metabolite-induced phagocytosis under AhR inhibition [1] | metabolite-induced phagocytosis under AhR inhibition ([1]; listed as Met+CH) | metabolite-induced increase in CSF1R intensity under AhR inhibition [2] | metabolite-induced increase in F4/80 intensity under AhR inhibition [2] | metabolite-induced proliferation (Ki67) under AhR inhibition [2] | proliferation (percent Ki67+ cells) [3] | proliferation (percent Ki67+ cells) ([3]; listed as IS) | CSF1R cell surface staining intensity (MFI) [3] | F4/80 cell surface staining intensity (MFI) [3] | CSF1R cell surface staining intensity (MFI) ([3]; listed as IS) | F4/80 cell surface staining intensity (MFI) ([3]; listed as IS) |
| --- | --- | --- | --- | --- | --- | --- | --- | --- | --- | --- | --- |
| Cc1ccccc1N=Nc1ccc(NC(=O)c2ccnn2C)c(C)c1 [CH223191] | significance is abolished | NOT dependent on AhR signaling | required for the upregulation of CSF1R and F4/80; also recorded: reduces metabolite induced changes in surface markers | required for the upregulation of CSF1R and F4/80; also recorded: reduces metabolite induced changes in surface markers | dispensable for enhancement of proliferation; also recorded: does not change proliferation |  |  |  |  |  |  |
| O=S(=O)(O)Oc1c[nH]c2ccccc12 [indoxyl sulfate] |  |  |  |  |  | nor does it increase the proliferative capacity | unable to significantly change either cell surface levels of F4/80 or CSF1R or to increase proliferation | does not increase CSF1R or F4/80 protein staining intensity | does not increase CSF1R or F4/80 protein staining intensity | unable to significantly change | unable to significantly change |
